Drawing on PubChem BioAssay (NCI), this text covers TGI and GI50 for 13 compounds.

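All cell lines were grown in 96-well plates and treated with compound for 48 hours. At the GI50, growth is halved. Definition used: TGI = concentration required for complete inhibition of growth.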 Where a SMILES comes first, the peptide text is derived from it. The star is where a group is joined. Boc = CC(C)(C)OC(=O)*; OSu = O=C1CCC(=O)N1O* Bounds are passed on as bounds.

Among the test systems are SN12C renal; COLO 205 colon; SR leukemia; UACC-62 melanoma; NCI-H522 lung; T-47D breast; SK-MEL-28 melanoma; OVCAR-4 ovarian; CAKI-1 renal; RXF 393 renal.
Common to all, as to experiment: NCI anticancer screen, dose series, 48 h

As for `Nc1nc(Cl)c(N)c(NCC2(CO)CC(OCc3ccccc3)C2)n1` (centres undefined), the TGI with SN12C renal, in the test with COLO 205 colon, with SR leukemia, in the test on UACC-62 melanoma, with NCI-H522 lung and in the test on T-47D breast was above 100 µM throughout. Besides, the TGI with SK-MEL-28 melanoma, in the test with OVCAR-4 ovarian, in the test on CAKI-1 renal and with RXF 393 renal was above 100 µM each time.
As for `O=C(Nc1cccc(-n2ccc3c(NC(=O)c4ccccc4)nccc32)c1)Nc1cc(C(F)(F)F)cc(C(F)(F)F)c1`, the GI50 in the test with SN12C renal was 2.05 µM; with COLO 205 colon, 1.68 µM; in the test on SR leukemia, 1.72 µM; with UACC-62 melanoma, 2 µM; in the test on NCI-H522 lung it was 0.83 µM; in the test with T-47D breast, 12.6 µM. Besides, the GI50 is 2.14 µM in the test on SK-MEL-28 melanoma, 1.93 µM in the test with OVCAR-4 ovarian, 1.53 µM with CAKI-1 renal and 1.16 µM with RXF 393 renal. For the same compound, the TGI in the test on SN12C renal is 29.4 µM; in the test on COLO 205 colon it was 5.29 µM; with SR leukemia, 6.48 µM; in the test with UACC-62 melanoma, 13 µM; with NCI-H522 lung, 2.69 µM; with T-47D breast, above 50 µM. Further, the TGI with SK-MEL-28 melanoma was above 50 µM; in the test with OVCAR-4 ovarian it was above 50 µM; in the test on CAKI-1 renal, 4.32 µM; in the test on RXF 393 renal, 3.17 µM.
Turning to `CN(CCn1cnc2c1c(=O)n(C)c(=O)n2C)C1CCCCC1`, the TGI with SN12C renal, in the test on COLO 205 colon, with SR leukemia, with UACC-62 melanoma, with NCI-H522 lung and in the test with T-47D breast was above 100 µM each time. For the same compound, the TGI in the test on SK-MEL-28 melanoma, in the test with OVCAR-4 ovarian, in the test on CAKI-1 renal and in the test with RXF 393 renal was above 100 µM throughout.
Turning to `COC(=O)/C=C\n1c(C)cc(=O)[nH]c1=O`, the TGI in the test on SN12C renal, with COLO 205 colon, with SR leukemia, with UACC-62 melanoma, in the test with NCI-H522 lung and in the test on T-47D breast was above 100 µM throughout. The TGI in the test with SK-MEL-28 melanoma, with OVCAR-4 ovarian and in the test on RXF 393 renal was above 100 µM each time.
`CC(C)/C(Cl)=N\OC(=O)Nc1ccccc1F`: the TGI turned out to be 26.8 µM with SN12C renal; 4.2 µM in the test on COLO 205 colon; 6.54 µM with SR leukemia; 36.6 µM with UACC-62 melanoma; 49.5 µM in the test with T-47D breast; 30.4 µM with SK-MEL-28 melanoma. Moreover, the TGI came out at 31.7 µM in the test on OVCAR-4 ovarian, 38.3 µM in the test on CAKI-1 renal and 9.97 µM in the test on RXF 393 renal.
With `CCCCC(C#N)(OP1(=O)OC(c2ccccc2)C(C)N1C)c1ccccc1` (centres undefined), the TGI is 31.3 µM in the test on SN12C renal; 35.4 µM with COLO 205 colon; 43.9 µM in the test on SR leukemia; 29.4 µM in the test with UACC-62 melanoma; 33.7 µM in the test with NCI-H522 lung; 55.1 µM in the test on T-47D breast. Moreover, the TGI with SK-MEL-28 melanoma worked out at 31.9 µM; in the test with CAKI-1 renal, 42.5 µM; in the test with RXF 393 renal, 33.1 µM.
With `Nc1ncnc2c1nnn2C1C=CC(COS(N)(=O)=O)C1` (centres undefined), the TGI in the test on SN12C renal is above 100 µM; in the test with COLO 205 colon, 17.4 µM; with SR leukemia, above 100 µM; with UACC-62 melanoma, 35.4 µM; in the test on T-47D breast, 97.7 µM; in the test with SK-MEL-28 melanoma, 26.2 µM. The results for the TGI with OVCAR-4 ovarian, with CAKI-1 renal and in the test with RXF 393 renal were 62.3 µM, 12.2 µM and 86 µM, respectively.
As for `O=C1CCC2(CC1CC(Sc1ccccc1)Sc1ccccc1)OCCO2` (centres undefined), the TGI with COLO 205 colon was 66.1 µM; with SR leukemia, 87.5 µM; in the test with UACC-62 melanoma, above 100 µM; with NCI-H522 lung, 85.4 µM; in the test with T-47D breast, 97.3 µM; with SK-MEL-28 melanoma, above 100 µM. Further, the TGI in the test on OVCAR-4 ovarian, in the test on CAKI-1 renal and with RXF 393 renal was above 100 µM throughout.
In the case of `Cc1[nH]c2c(c1C)S(=O)(=O)c1cc3ccccc3nc1N2`, the TGI was 36.9 µM in the test with SN12C renal; 46.3 µM in the test on COLO 205 colon; above 100 µM with SR leukemia; above 100 µM in the test on UACC-62 melanoma; 52 µM with NCI-H522 lung; above 100 µM in the test on T-47D breast. Besides, the TGI with SK-MEL-28 melanoma was 67.3 µM; with OVCAR-4 ovarian, 32.4 µM; with CAKI-1 renal it was above 100 µM; in the test with RXF 393 renal it was 66.8 µM.
For the compound `O=C1NC(SSC2=NNC3(C(=O)N2)c2ccccc2-c2ccccc23)=NNC12c1ccccc1-c1ccccc12`, the TGI with SN12C renal, with COLO 205 colon, in the test on SR leukemia, with UACC-62 melanoma, with NCI-H522 lung and in the test on T-47D breast was above 10 µM each time. Further, the TGI in the test on SK-MEL-28 melanoma, in the test on OVCAR-4 ovarian, in the test on CAKI-1 renal and with RXF 393 renal was above 10 µM each time.
As for `Cc1c(Cl)nc(Nc2nc3ccccc3[nH]2)nc1Cl`, the TGI in the test on SN12C renal, in the test with COLO 205 colon, in the test on SR leukemia, in the test on UACC-62 melanoma, in the test with NCI-H522 lung and in the test on T-47D breast was above 100 µM in each case. Further, the TGI with SK-MEL-28 melanoma is above 100 µM; with OVCAR-4 ovarian, 76.5 µM; with CAKI-1 renal, 71.9 µM; with RXF 393 renal it was above 100 µM.
With `CC(NC(=O)C(NC(=O)OC(C)(C)C)C(C)C)C(=O)NCC(=O)ON1C(=O)CCC1=O` (stereo not drawn) (Boc-Val-Ala-Gly-OSu; configuration not given here), the TGI in the test with SN12C renal, in the test on COLO 205 colon, in the test on SR leukemia, in the test on UACC-62 melanoma, in the test with NCI-H522 lung and in the test with T-47D breast was above 100 µM in each case. The TGI in the test with SK-MEL-28 melanoma, in the test with CAKI-1 renal and in the test with RXF 393 renal was above 100 µM throughout.
For the compound `O=C(O)c1cc2ccccc2c(N=Nc2ccc(S(=O)(=O)Nc3nccs3)cc2)c1O`, the TGI in the test on SN12C renal, with COLO 205 colon, with SR leukemia, with UACC-62 melanoma, in the test with NCI-H522 lung and in the test with T-47D breast was above 100 µM each time. The TGI with SK-MEL-28 melanoma, with OVCAR-4 ovarian, with CAKI-1 renal and with RXF 393 renal was above 100 µM each time.
